Numbers after ± are expanded uncertainties.
Details: 101.33 kPa, Liquid

Row | mass density (298.15 K) | Compound | mass density (293.15 K) | also measured
1 | – | Cc1cccc(C)c1 [1,3-dimethylbenzene] | 868.124 ± 0.65 kg/m3 | –
2 | – | CCCCn1cc[n+](C)c1.F[P-](F)(F)(F)(F)F [1-butyl-3-methylimidazolium hexafluorophosphate] | – | mass density (293.15 K, Vibrating tube method): 1380.33 ± 13 kg/m3
3 | 873.945 ± 0.64 kg/m3 | c1ccccc1 [benzene] | – | –
4 | – | CCCCCCCCC [nonane] | 718.418 ± 0.96 kg/m3 | –
5 | 740.289 ± 0.92 kg/m3 | CCCCCCCCCCC [undecane] | – | –

Row | Compound | mass density (298.15 K) | mass density (293.15 K) | also measured
6 | Cc1ccccc1 [toluene] | 864.989 ± 0.18 kg/m3 | – | –

From the NIST ThermoML archive (doi:10.1016/j.fluid.2008.01.007)
